Test results taken from US20080280879A1, “SUBSTITUTED HETEROCYCLIC DERIVATIVES AND THEIR PHARMACEUTICAL USE AND COMPOSITIONS” (priority 2007, published 2008).
In brackets after ≈: the same amount, converted by molar mass.

Experiments:
Type in all cases: cell-based, Staphylococcus aureus
[1] = tested on: Staph aureus 1095 MRSA; assay: MIC, microtiter broth dilution (CLSI M7-A7), Assay 1, Table 12 column A, no serum; conditions: Assay 1, no serum; for MIC: Staphylococcus aureus, MRSA
Outline: (§1)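 Broth microdilution in microtiter trays per CLSI M7-A7, interpreted per M100-S16; MIC (μg/ml) is the lowest concentration preventing visible growth. Serum condition used Mueller-Hinton Broth with 50% pooled inactivated human serum. Repeated runs reported as geometric mean.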

[2] = tested on: Staph aureus 1146; assay: MIC, microtiter broth dilution (CLSI M7-A7), Assay 1, Table 12 column B, no serum; conditions: for MIC: Staphylococcus aureus, 1146, Staph aureus 1146, Assay 1, no serum; for MIC, column B: Staph aureus 1146, Assay 1, no serum
Outline: as §1

[3] = tested on: Staph aureus 1146; assay: MIC in Mueller-Hinton Broth with 50% pooled inactivated human serum, Assay 1, Table 12; conditions: for MIC: Staphylococcus aureus, 1146, Staph aureus 1146, Assay 1, 50% human serum, read-out: MIC, column C; for MIC, column C: Staph aureus 1146, Assay 1, 50% human serum
Outline: as §1

[4] = tested on: Staph aureus 2811; assay: MIC, microtiter broth dilution (CLSI M7-A7), Assay 1, Table 12 column D, no serum; conditions: for MIC: Staphylococcus aureus, 2811, Staph aureus 2811, Assay 1, no serum; for MIC, column D: Staph aureus 2811, Assay 1, no serum
Outline: as §1

[5] = tested on: Staph aureus 2812; assay: MIC, microtiter broth dilution (CLSI M7-A7), Assay 1, Table 12 column E, no serum; conditions: for MIC: Staphylococcus aureus, 2812, Staph aureus 2812, Assay 1, no serum; for MIC, column E: Staph aureus 2812, Assay 1, no serum
Outline: as §1

Molecule	MIC [1] [mg/L]	MIC [2] [mg/L]	MIC [3] [mg/L]	MIC [4] [mg/L]	MIC [5] [mg/L]	MIC, column A [1]	MIC, column B [2]	MIC, column C [3] [mg/L]	MIC, column D [4]	MIC, column E [5]
COc1ccc2nccc([C@@H](O)CC[C@@H]3CCN(C4CC(c5cc(F)c(F)cc5F)C4)C[C@@H]3C(=O)O)c2c1 (stereo partly drawn) [Example 191, (3R,4R)-4-[(3S)-3-hydroxy-3-(6-methoxyquinolin-4-yl)propyl]-1-[3-(2,4,5-trifluorophenyl)cyclobutyl] piperidine-3-carboxylic acid]	0.125 (≈ 0.236 µM)	< 0.0625	1 (≈ 1.89 µM)	< 0.0625	< 0.0625					
3-{[2-(3-chloro-8-methoxyquinolin-4-yl)ethyl]amino}-1-(trans-3-phenylcyclobutyl)pyrrolidine-3-carboxylic acid [Example 114]						1 mg/L	0.5 mg/L	>64	0.5 mg/L	0.5 mg/L
COc1ccc2nccc(C(N)CC[C@@H]3CCN(C4CC(c5ccccc5)C4)C[C@@H]3C(=O)O)c2c1 (stereo partly drawn) [Example 138, (3R,4R)-4-[3-Amino-3-(6-methoxy-quinolin-4-yl)-propyl]-1-(3-phenyl-cyclobutyl)-piperidine-3-carboxylic acid]	2 (≈ 4.22 µM)	1 (≈ 2.11 µM)	0.5 (≈ 1.06 µM)	0.5 (≈ 1.06 µM)	2 (≈ 4.22 µM)					
COc1ccc2nccc(C(O)CC[C@@H]3CCN(C4CC5(CCCC5)C4)C[C@@H]3C(=O)O)c2c1 (stereo partly drawn) [Example 55, (3R,4R)-4-[3-hydroxy-3-(6-methoxyquinolin-4-yl)propyl]-1-spiro[3.4]oct-2-ylpiperidine-3-carboxylic acid]	4 (≈ 8.84 µM)	1 (≈ 2.21 µM)	32 (≈ 70.7 µM)	2 (≈ 4.42 µM)	2 (≈ 4.42 µM)					
COc1ccc2nccc(C(O)CC[C@@H]3CCN(CC4CC(c5ccccc5)C4)C[C@@H]3C(=O)O)c2c1 (stereo partly drawn) [Example 178, (3R,4R)-4-[3-hydroxy-3-(6-methoxyquinolin-4-yl)propyl]-1-[(3-phenylcyclobutyl)methyl]piperidine-3-carboxylic acid]						8.00 mg/L (≈ 16.4 µM)	2.00 mg/L (≈ 4.09 µM)	32.0 (≈ 65.5 µM)	2.00 mg/L (≈ 4.09 µM)	4.00 mg/L (≈ 8.19 µM)
COc1ccc2ncc(Cl)c(CCNC3(C(=O)O)CCCN(C4CC(c5cccc(C)c5)C4)CC3)c2c1 (stereo not drawn) [Example 153, 4-{[2-(3-chloro-6-methoxyquinolin-4-yl)ethyl]amino}-1-[3-(3-methylphenyl)cyclobutyl]azepane-4-carboxylic acid]	4 (≈ 7.66 µM)	1 (≈ 1.92 µM)	2 (≈ 3.83 µM)	0.5 (≈ 0.958 µM)	0.5 (≈ 0.958 µM)					
COc1ccc2ncc(F)c(C(O)CC[C@@H]3CCN([C@H]4C[C@H](c5c(F)cccc5F)C4)C[C@@H]3C(=O)O)c2c1 (stereo partly drawn) [Example 215, (3R,4R)-1-[trans-3-(2,6-difluorophenyl)cyclobutyl]-4-[3-(3-fluoro-6-methoxyquinolin-4-yl)-3-hydroxypropyl] piperidine-3-carboxylic acid]	< 0.0625	< 0.0625	1 (≈ 1.89 µM)	< 0.0625	< 0.0625					
COc1ccc2nccc(C(O)CC[C@@H]3CCN(C4CC(CC5CCOC5)C4)C[C@@H]3C(=O)O)c2c1 (stereo partly drawn) [Example 51, (3R,4R)-4-[3-hydroxy-3-(6-methoxyquinolin-4-yl)propyl]-1-[3-(tetrahydrofuran-3-ylmethyl)cyclobutyl]piperidine-3-carboxylic acid]	32 (≈ 66.3 µM)	16 (≈ 33.2 µM)	16 (≈ 33.2 µM)	16 (≈ 33.2 µM)	8 (≈ 16.6 µM)					
COc1ccc2nccc(C(O)CC[C@@H]3CCN(C4CC(c5ccccc5)C4)C[C@@H]3C(N)=O)c2c1 (stereo partly drawn) [Example 144]						<=.0625 μg/ml	<=.0625 μg/ml	0.25 (≈ 0.528 µM)	<=.0625 μg/ml	<=.0625 μg/ml
COc1ccc2ncc(F)c([C@@H](O)CC[C@@H]3CCN(C4CC(=O)N(c5ccccc5)C4)C[C@@H]3C(=O)O)c2c1 (stereo partly drawn) [Example 227]	8 (≈ 15.3 µM)	2 (≈ 3.83 µM)	64 (≈ 123 µM)	2 (≈ 3.83 µM)	8 (≈ 15.3 µM)					
COc1ccc2nccc(C(O)CC[C@@H]3CCN(C4CC(Oc5ccccn5)C4)C[C@@H]3C(=O)O)c2c1 (stereo partly drawn) [Example 104, (3R,4R)-4-[3-hydroxy-3-(6-methoxyquinolin-4-yl)propyl]-1-[3-(pyridin-2-yloxy)cyclobutyl]piperidine-3-carboxylic acid]	> 64	> 64	> 64	> 64	> 64					
O=C(O)[C@H]1CN(C2CC(c3ccccc3)C2)CC[C@H]1CCC(O)c1ccnc2ccc(O)cc12 (stereo partly drawn) [Example 142, (3R,4R)-4-[3-hydroxy-3-(6-hydroxyquinolin-4-yl)propyl]-1-(3-phenylcyclobutyl)piperidine-3-carboxylic acid]	32 (≈ 69.5 µM)	16 (≈ 34.7 µM)	> 64	8 (≈ 17.4 µM)	16 (≈ 34.7 µM)					
COc1ccc2nccc([C@@H](O)CC[C@@H]3CCN(C4CC(c5cccc(C#N)c5)C4)C[C@@H]3C(=O)O)c2c1 (stereo partly drawn) [Example 223, (3R,4R)-1-[3-(3-cyanophenyl)cyclobutyl]-4-[(3S)-3-hydroxy-3-(6-methoxyquinolin-4-yl)propyl]piperidine-3-carboxylic acid]	16 (≈ 32 µM)	4 (≈ 8.01 µM)	32 (≈ 64 µM)	4 (≈ 8.01 µM)	8 (≈ 16 µM)					
COc1ccc2ncc(Cl)c(C(O)CCC3(C(=O)O)CCN(C4CC(c5cc(F)ccc5F)C4)C3)c2c1 (stereo not drawn) [Example 184, 3-[3-(3-chloro-6-methoxyquinolin-4-yl)-3-hydroxypropyl]-1-[3-(2,5-difluorophenyl)cyclobutyl] pyrrolidine-3-carboxylic acid]	0.25 (≈ 0.471 µM)	< 0.0625	8 (≈ 15.1 µM)	< 0.0625	< 0.0625					
COc1ccc2ncc(Cl)c(CCCC3(C(=O)O)CCN(C4CC(c5cc(F)ccc5F)C4)C3)c2c1 (stereo not drawn) [Example 207, 3-[3-(3-chloro-6-methoxyquinolin-4-yl)propyl]-1-[3-(2,5-difluorophenyl)cyclobutyl] pyrrolidine-3-carboxylic acid]	< 0.0625	< 0.0625	64 (≈ 124 µM)	< 0.0625	< 0.0625					
COc1ccc2nccc([C@@H](O)CNC3CCN([C@H]4C[C@H](c5ccccc5)C4)CC3C(=O)O)c2c1 (stereo partly drawn) [Example 122, 4-{[(2R)-2-hydroxy-2-(6-methoxyquinolin-4-yl)ethyl]amino}-1-(trans-3-phenylcyclobutyl)piperidine-3-carboxylic acid]	4 (≈ 8.41 µM)	4 (≈ 8.41 µM)	16 (≈ 33.6 µM)	1 (≈ 2.1 µM)	2 (≈ 4.21 µM)					
COc1ccc2nccc([C@@H](O)CC[C@@H]3CCN(C4CC(c5ccc(Br)cc5F)C4)C[C@@H]3C(=O)O)c2c1 (stereo partly drawn) [Example 196, (3R,4R)-1-[3-(4-bromo-2-fluorophenyl)cyclobutyl]-4-[(3S)-3-hydroxy-3-(6-methoxyquinolin-4-yl)propyl] piperidine-3-carboxylic acid]	8 (≈ 14 µM)	1 (≈ 1.75 µM)	64 (≈ 112 µM)	1 (≈ 1.75 µM)	2 (≈ 3.5 µM)					
COc1ccc2nccc(C(F)CC[C@@H]3CCN(C4CC(c5ccccc5)C4)C[C@@H]3C(=O)O)c2c1 (stereo partly drawn) [Example 133, (3R,4R)-4-(3-fluoro-3-(6-methoxyquinolin-4-yl)propyl)-1-(3-phenylcyclobutyl)piperidine-3-carboxylic acid]		≤ 0.0625	2 (≈ 4.2 µM)	0.125 (≈ 0.262 µM)	≤ 0.0625	0.25 mg/L (≈ 0.525 µM)				
